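Cultured in 96-well plates, cells were exposed to test compound for 48 hours across five concentrations. At the GI50, growth is halved.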 Active and inactive are the calls of the source. Cut-off read from the data, not from the text of the source: active = GI50 up to about 1.1 µM and inactive = higher.
Assays:
Experiment in all cases: NCI-60 cell line screen, 48 h
[1] = test system: SNB-19
[2] = test system: SK-MEL-2
[3] = test system: HCT-116
[4] = test system: NCI-H23
[5] = test system: UACC-257
[6] = test system: SK-MEL-5
[7] = test system: T47D
[8] = test system: SW-620
[9] = test system: HT-29
[10] = test system: SK-MEL-28
[11] = test system: SF-295
[12] = test system: MDA-MB-435
[13] = test system: OVCAR-8
[14] = test system: MDA-MB-231
[15] = test system: MOLT-4
[16] = test system: U-251
[17] = test system: PC-3
[18] = test system: EKVX
[19] = test system: RPMI-8226

Measured: GI50

COc1cccc2c1C(=O)C(=O)c1c-2oc(=O)c2cc(C)cc(OC)c12
inactive: [1] 37.8 µM | [2] 16 µM | [3] 27.4 µM | [4] 19.3 µM | [5] 14.9 µM | [6] 17 µM | [7] 29.9 µM | [8] 29.4 µM | [9] 22.6 µM | [10] 53.6 µM | [11] 45.3 µM | [12] 14.2 µM | [13] 14.9 µM | [14] 21.3 µM | [15] 23 µM | [16] 12.8 µM | [17] 37.8 µM | [18] 22.5 µM | [19] 20.6 µM

COc1ccc([N+](=O)[O-])c2c(NCCCN(C)C)c(C)c(C)nc12
inactive: [1] 44.8 µM | [2] > 100 µM | [3] 36.2 µM | [4] 44.8 µM | [5] > 100 µM | [6] 46.8 µM | [7] 77.3 µM | [8] 54 µM | [9] 42.6 µM | [10] > 100 µM | [11] 90.8 µM | [12] > 100 µM | [13] > 100 µM | [14] 57.5 µM | [15] > 100 µM | [16] > 100 µM | [17] 83 µM | [19] 31.8 µM

O=C(CCCCCCCCC(=O)N1C(=O)CC(=O)N(c2ccccc2)C1=S)N1C(=O)CC(=O)N(c2ccccc2)C1=S
inactive: [1] > 100 µM | [2] > 100 µM | [3] > 100 µM | [4] > 100 µM | [5] > 100 µM | [6] > 100 µM | [7] > 100 µM | [9] > 100 µM | [11] > 100 µM | [12] > 100 µM | [13] > 100 µM | [14] > 100 µM | [15] > 100 µM | [16] > 100 µM | [17] > 100 µM | [18] > 100 µM | [19] > 100 µM

CCO[C@]12CCC[C@H]1[C@@H]1C(=O)c3ccccc3C(=O)C1=C(C)O2
inactive: [1] > 100 µM | [2] > 100 µM | [4] 98.2 µM | [5] > 100 µM | [6] 33.7 µM | [7] 70 µM | [8] 37.2 µM | [9] > 100 µM | [10] > 100 µM | [11] 81.1 µM | [12] 39.5 µM | [13] 40.1 µM | [14] > 100 µM | [15] 33.6 µM | [16] 36.3 µM | [17] > 100 µM | [18] > 100 µM | [19] 29.2 µM

COc1ccc(NC(C)=O)c(C(O)CCNC(C)=O)c1 (stereo not drawn)
inactive: [1] > 100 µM | [2] > 100 µM | [3] > 100 µM | [4] > 100 µM | [5] > 100 µM | [6] > 100 µM | [7] > 100 µM | [8] > 100 µM | [9] > 100 µM | [11] > 100 µM | [12] > 100 µM | [13] > 100 µM | [14] > 100 µM | [15] > 100 µM | [16] > 100 µM | [17] > 100 µM | [18] > 100 µM | [19] > 100 µM

COc1ccc(-c2cc(=O)c3c(O)cc(C)cc3o2)cc1OC
inactive: [1] > 100 µM | [2] > 100 µM | [3] > 100 µM | [4] > 100 µM | [5] > 100 µM | [6] > 100 µM | [7] > 100 µM | [8] > 100 µM | [9] > 100 µM | [10] > 100 µM | [11] > 100 µM | [12] > 100 µM | [14] > 100 µM | [15] > 100 µM | [16] > 100 µM | [17] > 100 µM | [18] > 100 µM | [19] > 100 µM

From ChEMBL document CHEMBL1201862, “PubChem BioAssay data set” (2004)
